O=C1CCCC(=O)C1
solubility (mole fraction)
Conditions	288.15 K	293.15 K	298.15 K	303.15 K	308.15 K	313.15 K	318.15 K	323.15 K	328.15 K
in 2-butanone	0.0273	0.0355	0.0534	0.0727	0.0991	0.133	0.162	0.215	0.264
in THF	0.0855	0.109	0.135	0.164	0.208	0.246	0.307	0.347	0.392
in acetone	0.0488	0.0624	0.0834	0.108	0.132	0.173	0.211	0.245	0.282
in acetonitrile	0.0156	0.0198	0.0258	0.035	0.044	0.0538	0.0685	0.09	0.113
in chloroform	0.238	0.256	0.29	0.317	0.364	0.4	0.432	0.47	0.505
in ethyl acetate	0.0126	0.0155	0.0194	0.0244	0.0307	0.039	0.0515	0.0626	0.0819
in ethyl butyrate	0.0083	0.0103	0.0125	0.0148	0.0184	0.0221	0.0266	0.0322	0.0379
in ethyl formate	0.0109	0.0141	0.0182	0.0231	0.0287	0.0359	0.0492	0.0591	0.0694
in ethyl propionate	0.0118	0.0139	0.017	0.0203	0.0246	0.0294	0.0353	0.041	0.0495
in isopropyl acetate	0.0125	0.0146	0.017	0.0194	0.0228	0.0269	0.0302	0.0368	0.0424
in methyl acetate	0.0146	0.02	0.0247	0.0313	0.0406	0.0524	0.0714	0.0886	0.105
in n-butyl acetate	0.0119	0.0141	0.0168	0.0202	0.0237	0.0282	0.0347	0.0403	0.0457
in n-propyl acetate	0.0121	0.0147	0.0176	0.0214	0.0263	0.0324	0.0381	0.0457	0.0535
in toluene	0.00171	0.00244	0.00335	0.00445	0.00577	0.00803	0.0106	0.0136	0.0165
